Earlier results in patent publication US6306435A, “Oral pharmaceutical preparation embedded in an oily matrix and methods of making the same” (Yung Shin Pharmaceutical Industrial Co. Ltd., priority 2000, dated 2001).
Read-outs that look alike come from different tables or passages of the source.

How the values were obtained:
[1] = not given; remark: listed apart in the source

## COc1ccc2[nH]c([S+]([O-])Cc3ncc(C)c(OC)c3C)nc2c1 (centres unmarked) [Omeprazole]
Alkaline solutions, as negatively charged ion
  solubility in alkaline solutions: very soluble
pyridinium
  pKa (pyridinium): ~ 4
water
  solubility in water: very slightly soluble
[1]; conventional oral dosage form
  degradation before reaching the small intestine: more than half
[1]; moisture, organic solvents and acidic substances
  effect of moisture, organic solvents and acidic substances on stability: deleterious effect
[1]; pH 6.5
  half-life of degradation: 18 h
[1]; pH 11
  half-life of degradation: about 300 days
[1]; water solutions, pH-values below 4
  half-life of degradation: less than 10 minutes
